Data as given in USRE48711E1, “Apoptosis signal-regulating kinase inhibitors” (Gilead Sciences, Inc., priority 2009, dated 2021).

biological target: ASK1 (Apoptosis Signal-Regulating Kinase 1) (Homo sapiens (Human), UniProt Q99683); test: ASK1 (Apoptosis Signal-Regulating Kinase 1) TR-FRET Kinase Assay (Biochemical IC50); settings: TR-FRET, biotin-MBP substrate, 20 min pre-incubation, ATP added as 300 μM solution
Sequence (Q99683 649-946): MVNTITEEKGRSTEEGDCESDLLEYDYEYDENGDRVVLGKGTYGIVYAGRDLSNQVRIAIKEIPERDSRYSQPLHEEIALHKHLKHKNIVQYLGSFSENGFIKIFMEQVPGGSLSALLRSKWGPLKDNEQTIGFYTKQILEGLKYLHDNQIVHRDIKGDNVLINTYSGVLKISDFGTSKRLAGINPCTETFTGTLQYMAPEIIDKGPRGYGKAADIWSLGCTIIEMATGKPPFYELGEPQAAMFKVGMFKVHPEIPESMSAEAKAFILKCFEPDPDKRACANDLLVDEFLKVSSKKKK
Description: The ability of compounds to inhibit ASK1 kinase activity was determined using a time resolved fluorescence resonance energy transfer [TR-FRET] assay utilizing biotinylated myelin basic protein [biotin-MBP] as the protein substrate. […] The enzyme was allowed to pre-incubate with compound for 20 minutes prior to initiating the kinase reaction with the addition of 5 μL/well 300 μM ATP in buffer (50 mM MOPS, pH 7.0, 5 mM Mg-acetate, 1 mM DTT, 5% DMSO) using the Decrac Fluidics Equator. The kinase reactions were allowed to proceed for 20 minutes at ambient temperature and were subsequently stopped with the addition of 5 μL/well 25 mM EDTA using the Deerac Fluidics Equator. […] The TR-FRET signal was then read on a Perkin. Elmer Envision plate reader after incubating the plates at ambient temperature for 2 hours.

For `O=C(Nc1cccc(-c2nncn2C2CC2)n1)c1cccc(-c2ccc(C3CC3)nc2)c1` [Example 151, N-(6-(4-cyclopropyl-4H-1,2,4-triazol-3-yl)pyridin-2-yl)-3-(6-cyclopropylpyridin-3-yl)benzamide], which IC50 is on record?
Its IC50 is 8 nM.

How did the IC50 turn out when `O=C(Nc1cccc(-c2nncn2C2CC2)c1)c1cc(-c2ccc(C3CCC3)nc2)ccn1` [Example 103, 6-cyclobutyl-N-(3-(4-cyclopropyl-4H-1,2,4-triazol-3-yl)phenyl)-3,4′-bipyridine-2′-carboxamide] was run?
Its IC50 is 11 nM.

`C[C@H](O)Cn1cnnc1-c1cccc(NC(=O)c2cc(-c3cccnc3)ccn2)c1` [Example 35, (S)-N-(3-(4-(2-hydroxypropyl)-4H-1,2,4-triazol-3-yl)phenyl)-3,4′-bipyridine-2′-carboxamide] was tested. Which IC50 did it give?
Its IC50 is 87 nM.

How did the IC50 turn out when `CC[C@H](C)n1cnnc1-c1cccc(NC(=O)c2cc(-c3ccc(C4CC4)nc3)ccn2)c1` [Example 237, (S)-N-(3-(4-sec-butyl-4H-1,2,4-triazol-3-yl)phenyl)-6-cyclopropyl-3,4′-bipyridine-2′-carboxamide] was run?
The IC50 was 38 nM.

For `O=C(Nc1cccc(-c2nncn2C2CC2)c1)c1cc(-c2ccc(C3CCCC3)nc2)ccn1` [Example 109, 6-cyclopentyl-N-(3-(4-cyclopropyl-4H-1,2,4-triazol-3-yl)phenyl)-3,4′-bipyridine-2′-carboxamide], which IC50 is on record?
Its IC50 is 21 nM.

With `CCc1ncc(-c2ccnc(C(=O)Nc3cccc(-c4nncn4C4CC4)c3)c2)cn1` [Example 145, N-(3-(4-cyclopropyl-4H-1,2,4-triazol-3-yl)phenyl)-4-(2-ethylpyrimidin-5-yl)picolinamide] as the molecule, how does the IC50 read?
The IC50 was 7 nM.

For `CC(c1ccccc1)n1cnnc1-c1cccc(NC(=O)c2cc(-n3cnc(C4CC4)c3)ccn2)c1` (stereo not drawn) [Example 186, 4-(4-cyclopropyl-1H-imidazol-1-yl)-N-(3-(4-(1-phenylethyl)-4H-1,2,4-triazol-3-yl)phenyl)picolinamide], which IC50 is on record?
The IC50 was 30 nM.

Which IC50 does the source give for `C[C@@H](c1ccccc1)n1cnnc1-c1cccc(NC(=O)c2cccc(-n3cnc(C4CC4)c3)c2)n1` [Example 217, (S)-3-(4-cyclopropyl-1H-imidazol-1-yl)-N-(6-(4-(1-phenylethyl)-4H-1,2,4-triazol-3-yl)pyridin-2-yl)benzamide] here?
Its IC50 is 14 nM.

For `O=C(Nc1cccc(-c2nncn2C2CCC2)c1)c1cc(-c2cccnc2)ccn1` [Example 39, N-(3-(4-cyclobutyl-4H-1,2,4-triazol-3-yl)phenyl)-3,4′-bipyridine-2′-carboxamide], which IC50 is on record?
Its IC50 is 63 nM.

`CN1CCC(n2cnnc2-c2cccc(NC(=O)c3cc(-c4ccc(C5CC5)nc4)ccn3)n2)CC1` [Example 241, 6-cyclopropyl-N-(6-(4-(1-methylpiperidin-4-yl)-4H-1,2,4-triazol-3-yl)pyridin-2-yl)-3,4′-bipyridine-2′-carboxamide] was tested. Which IC50 did it give?
The IC50 was 616 nM.

Which IC50 does the source give for `NC(=O)c1ccc(-c2ccnc(C(=O)Nc3cccc(-c4nncn4C4CC4)c3)c2)cn1` [Example 51, N2′-(3-(4-cyclopropyl-4H-1,2,4-triazol-3-yl)phenyl)-3,4′-bipyridine-2′,6-dicarboxamide] here?
Its IC50 is 8 nM.

How did the IC50 turn out when `Cc1ccc(C(=O)Nc2cccc(-c3nncn3C3CC3)n2)cc1-n1cnc(C2CC2)c1` [Example 200, 3-(4-cyclopropyl-1H-imidazol-1-yl)-N-(6-(4-cyclopropyl-4H-1,2,4-triazol-3-yl)pyridin-2-y1)-4-methylbenzamide] was run?
Its IC50 is 11 nM.

With `O=C(Nc1cccc(-c2nncn2C2CC2)c1F)c1cc(-c2ccc(C3CC3)nc2)ccn1` [Example 155, 6-cyclopropyl-N-(3-(4-cyclopropyl-4H-1,2,4-triazol-3-yl)-2-fluorophenyl)-3,4′-bipyridine-2′-carboxamide] as the molecule, how does the IC50 read?
Its IC50 is 10 nM.

With `O=C(Nc1cccc(-c2nncn2C2CCC2)c1)c1cc(-c2ccc(C3CC3)nc2)ccn1` [Example 221, N-(3-(4-cyclobutyl-4H-1,2,4-triazol-3-yl)phenyl)-6-cyclopropyl-3,4′-bipyridine-2′-carboxamide] as the molecule, how does the IC50 read?
Its IC50 is 31 nM.

For `O=C(Nc1cc(F)cc(-c2nncn2C2CC2)c1)c1cc(-c2ccc(C3CC3)nc2)ccn1` [Example 168, 6-cyclopropyl-N-(3-(4-cyclopropyl-4H-1,2,4-triazol-3-yl)-5-fluorophenyl)-3,4′-bipyridine-2′-carboxamide], which IC50 is on record?
Its IC50 is 143 nM.

Which IC50 does the source give for `O=C(Nc1cccc(-c2nncn2C2CC2)c1)c1cc(-c2ccc(C3CC3)nc2)ccn1` [Example 50, 6-cyclopropyl-N-(3-(4-cyclopropyl-4H-1,2,4-triazol-3-yl)phenyl)-3,4′-bipyridine-2′-carboxamide] here?
Its IC50 is 8 nM.

For `O=C(Nc1cccc(-c2nncn2C2CC2)c1)c1cc(-c2cnc3scnn23)ccn1` [Example 121, N-(3-(4-cyclopropyl-4H-1,2,4-triazol-3-yl)phenyl)-4-(imidazo[2,1-b][1,3,4]thiadiazol-5-yl)picolinamide], which IC50 is on record?
The IC50 was 47 nM.

Which IC50 does the source give for `COc1ncccc1-c1ccnc(C(=O)Nc2cccc(-c3nncn3C3CC3)c2)c1` [Example 67, N-(3-(4-cyclopropyl-4H-1,2,4-triazol-3-yl)phenyl)-2-methoxy-3,4′-bipyridine-2′-carboxamide] here?
Its IC50 is 60 nM.

`CC(C)Oc1ccc(-c2ccnc(C(=O)Nc3cccc(-c4nncn4C4CC4)c3)c2)cn1` [Example 94, N-(3-(4-cyclopropyl-4H-1,2,4-triazol-3-yl)phenyl)-6-isopropoxy-3,4′-bipyridine-2′-carboxamide] was tested. Which IC50 did it give?
The IC50 was 61 nM.

Which IC50 does the source give for `CS(=O)(=O)c1ccc(-c2ccnc(C(=O)Nc3cccc(-c4nncn4C4CC4)c3)c2)cc1` [Example 79, N-(3-(4-cyclopropyl-4H-1,2,4-triazol-3-yl)phenyl)-4-(4-(methylsulfonyl)phenyl)picolinamide] here?
Its IC50 is 6 nM.

For `O=C(Nc1cccc(-c2nncn2C2CC2)c1)c1cc(-n2nnc3ccccc32)ccn1` [Example 85, 4-(1H-benzo[d][1,2,3]triazol-1-yl)-N-(3-(4-cyclopropyl-4H-1,2,4-triazol-3-yl)phenyl)picolinamide], which IC50 is on record?
The IC50 was 141 nM.

For `O=C(Nc1cccc(-c2cncn2C2CC2)c1)c1cc(-n2cnc3ccccc32)ccn1` [Example 88, 4-(1H-benzo[d]imidazol-1-yl)-N-(3-(1-cyclopropyl-1H-imidazol-5-yl)phenyl)picolinamide], which IC50 is on record?
The IC50 was 35 nM.

For `CC(C)n1ccc2ncc(-c3ccnc(C(=O)Nc4cccc(-c5nncn5C5CC5)c4)c3)cc21` [Example 243, N-(3-(4-cyclopropyl-4H-1,2,4-triazol-3-yl)phenyl)-4-(1-isopropyl-1H-pyrrolo[3,2-b]pyridin-6-yl)picolinamide], which IC50 is on record?
The IC50 was 15 nM.

`C[C@H](n1cnnc1-c1cccc(NC(=O)c2cc(-c3ccc(C4CC4)nc3)ccn2)c1)C(F)(F)F` [Example 223, (S)-6-cyclopropyl-N-(3-(4-(1,1,1-trifluoropropan-2-yl)-4H-1,2,4-triazol-3-yl)phenyl)-3,4′-bipyridine-2′-carboxamide] was tested. Which IC50 did it give?
Its IC50 is 45 nM.

With `O=C(Nc1cccc(-c2nncn2C2CC2)c1)c1cc(-n2cnc(Cl)c2)ccn1` [Example 122, 4-(4-chloro-1H-imidazol-1-yl)-N-(3-(4-cyclopropyl-4H-1,2,4-triazol-3-yl)phenyl)picolinamide] as the molecule, how does the IC50 read?
The IC50 was 17 nM.

How did the IC50 turn out when `CC(C)NS(=O)(=O)c1ccc(-c2ccnc(C(=O)Nc3cccc(-c4nncn4C4CC4)c3)c2)cc1` [Example 99, N-(3-(4-cyclopropyl-4H-1,2,4-triazol-3-yl)phenyl)-4-(4-(N-isopropylsulfamoyl)phenyl)picolinamide] was run?
The IC50 was 17 nM.

With `COC(c1cn(-c2cccc(C(=O)Nc3cccc(-c4nncn4C4CC4)n3)c2)cn1)C(F)(F)F` (stereo not drawn) [Example 235, N-(6-(4-cyclopropyl-4H-1,2,4-triazol-3-yl)pyridin-2-yl)-3-(4-(2,2,2-trifluoro-1-methoxyethyl)-1H-imidazol-1-yl)benzamide] as the molecule, how does the IC50 read?
Its IC50 is 15 nM.

`CN1CCc2c(ncn2-c2ccnc(C(=O)Nc3cccc(-c4nncn4C4CC4)n3)c2)C1C(F)(F)F` (stereo not drawn) [Example 256, N-(6-(4-cyclopropyl-4H-1,2,4-triazol-3-yl)pyridin-2-yl)-4-(5-methyl-4-(trifluoromethyl)-4,5,6,7-tetrahydro-1H-imidazo[4,5-c]pyridin-1-yl)picolinamide] was tested. Which IC50 did it give?
Its IC50 is 4 nM.

With `O=C(Nc1cccc(-c2nncn2C2CC2)n1)c1cccc(-n2cc(C3CC3)nn2)c1` [Example 269, 3-(4-cyclopropyl-1H-1,2,3-triazol-1-yl)-N-(6-(4-cyclopropyl-4H-1,2,4-triazol-3-yl)pyridin-2-yl)benzamide] as the molecule, how does the IC50 read?
The IC50 was 23 nM.

For `Cn1cc(-c2ccnc(C(=O)Nc3cccc(-c4nncn4C4CC4)c3)c2)cn1` [Example 68, N-(3-(4-cyclopropyl-4H-1,2,4-triazol-3-yl)phenyl)-4-(1-methyl-1H-pyrazol-4-yl)picolinamide], which IC50 is on record?
Its IC50 is 39 nM.

With `O=C(Nc1cccc(-c2nncn2C2CC2)c1)c1cc(-c2cncc(Cl)c2)ccn1` [Example 76, 5-chloro-N-(3-(4-cyclopropyl-4H-1,2,4-triazol-3-yl)phenyl)-3,4′-bipyridine-2′-carboxamide] as the molecule, how does the IC50 read?
The IC50 was 34 nM.

Which IC50 does the source give for `N#Cc1cncc(-c2ccnc(C(=O)Nc3cccc(-c4nncn4C4CC4)c3)c2)c1` [Example 65, 5-cyano-N-(3-(4-cyclopropyl-4H-1,2,4-triazol-3-yl)phenyl)-3,4′-bipyridine-2′-carboxamide] here?
The IC50 was 30 nM.

For `C[C@@H](n1cnnc1-c1cccc(NC(=O)c2cc(-c3cccnc3)ccn2)c1)C(F)(F)F` [Example 62, (R)-N-(3-(4-(1,1,1-trifluoropropan-2-yl)-4H-1,2,4-triazol-3-yl)phenyl)-3,4′-bipyridine-2′-carboxamide], which IC50 is on record?
Its IC50 is 1240 nM.

`O=C(Nc1cccc(-c2nncn2C2CC2)c1)c1cc(-n2cnc(C(F)(F)C(F)(F)F)c2)ccn1` [Example 198, N-(3-(4-cyclopropyl-4H-1,2,4-triazol-3-yl)phenyl)-4-(4-(perfluoroethyl)-1H-imidazol-1-yl)picolinamide] was tested. Which IC50 did it give?
The IC50 was 19 nM.

Which IC50 does the source give for `CS(=O)(=O)c1cccc(-c2ccnc(C(=O)Nc3cccc(-c4nncn4C4CC4)c3)c2)c1` [Example 77, N-(3-(4-cyclopropyl-4H-1,2,4-triazol-3-yl)phenyl)-4-(3-(methylsulfonyl)phenyl)picolinamide] here?
The IC50 was 79 nM.

Which IC50 does the source give for `O=C(Nc1cccc(-c2nncn2C2CC2)c1)c1cc(-n2cncn2)ccn1` [Example 28, N-(3-(4-cyclopropyl-4H-1,2,4-triazol-3-yl)phenyl)-4-(1H-1,2,4-triazol-1-yl)picolinamide] here?
Its IC50 is 110 nM.
